biological target: CRAC channel (Homo sapiens (Human), UniProt Q96D31); assay: GFP-NFAT translocation-based high-content screening (TG-stimulated HeLa cells stably expressing GFP-NFAT); format: cell-based; conditions: 200 μM compound
Source text: It is known that thapsigargin (TG) can induce the CRAC channel to open resulting in the calcium influx. The elevation of calcium in cytoplasm can activate the Ca^2+-calcineurin-NFAT pathway followed by NFAT translocation from the cytoplasm to the nucleus to regulate gene transcription. Therefore, the inventors built a GFP-NFAT translocation-based high-content screening method to evaluate the activity of compounds on CRAC channel. Briefly, a HeLa cell line stably expressing GFP-NFAT was established and used, and the images after chemical stimulation in the presence of TG were acquired using an IN Cell Analyzer 6000 confocal laser imaging system, and then the GFP fluorescent intensity ratio between cytoplasm and nucleus was analyzed to reflect the inhibitory activity of compound on CRAC channel.
Briefly, GFP-NFAT stable cells were cultured in Dulbecco's modified eagle's medium (DMEM) supplemented with 10% FBS in 5% carbon dioxide at 37° C. When it reached 90% confluency, a cell suspension with a concentration of […] was prepared, and an amount of 2000 cells per well (25 μL/well) was seeded in 384 well plate, putting it at the room temperature for 1 h to make sure the cells distribute evenly, then the cells were incubated overnight. First, primary screening of the selected compounds was conducted. A series of compound solutions with a concentration of 200 μM in MEDM medium were prepared in a 96 well plate and then added to a 384 well plate using a Beckman Coulter automatic drug adding system, in 4 duplicates, and incubated for 30 min at 37° C. SKF was selected as the positive control. Then, 1 μM TG and 1 mM Ca^2+ were added to 384-well plate using Beckman Coulter automatic drug adding system and incubated for 20 min. Subsequently, 384 well plate was gently washed with PBS twice, and the cells were fixed with 4% PFA (25 μl per well) for 10˜15 mins at room temperature, then washed with PBS gently, added 0.5% Triton X-100 (25 μL per well), and incubated for 5 mins aFt room temperature, stained with DAPI (1 μg/mL) for 5˜10 mins at room temperature, washed with PBS and added 30 μL PBS per well to image on confocal laser imaging system (objective lens: 10×, FITC and UV). Using Pipeline Plot software (NAFT translocation protocol), the intensity of green fluorescence was analyzed in nucleus and cytosol, calculate the ratio of nucleus:cytosol, normalize TG stimulate NFAT translocation as 1 and no TG adding as 0. Finally, the data was analyzed using GraphPad Prism 5 software.

Sequence of CRAC channel (Q96D31 whole entry): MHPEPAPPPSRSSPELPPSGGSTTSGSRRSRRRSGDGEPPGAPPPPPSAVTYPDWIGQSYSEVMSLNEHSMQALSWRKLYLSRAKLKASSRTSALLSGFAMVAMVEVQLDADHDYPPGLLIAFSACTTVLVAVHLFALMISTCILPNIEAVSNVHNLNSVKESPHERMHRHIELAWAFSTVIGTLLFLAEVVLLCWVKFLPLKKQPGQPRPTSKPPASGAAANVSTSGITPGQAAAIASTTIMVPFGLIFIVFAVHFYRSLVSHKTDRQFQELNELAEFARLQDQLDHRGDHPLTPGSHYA

Inhibitory activity on CRAC channel in primary screening (NFAT nucleus-to-cytosol ratio) | SMILES
good activity | CCN/C(=N\c1cccc(C(F)(F)F)c1)S[C@H]1CC(=O)N(c2ccc(C(=O)O)cc2)C1=O [Compound 03]
good inhibition | CCN/C(=N/c1ccc(C)c(Cl)c1)SC1CC(=O)N(c2ccc(C(=O)OC)cc2)C1=O (stereo not drawn) [Compound 62]

same assay, conditions: GFP-NFAT translocation assay; read-out: IC50 on CRAC channel

IC50 | SMILES
~100 µM | CCN/C(=N\c1cccc(C(F)(F)F)c1)S[C@H]1CC(=O)N(c2ccc(C(=O)O)cc2)C1=O [Compound 03]

same assay, conditions: Table 1, hits from virtual screening; unit inferred; read-out: IC50 Value

IC50 | SMILES
> 200 µM | Cc1ccc(N2C(=O)c3ccc(C(=O)O)cc3C2=O)cc1Cl [Compound 42]
> 200 µM | Cc1nn(-c2ccc([N+](=O)[O-])cc2)c(Cl)c1S(=O)(=O)O [Compound 38]
> 200 µM | Cc1nn([C@H](CC(=O)O)C(=O)O)c(C)c1I [Compound 29]
> 200 µM | CC(=C\C(=O)O)/C(=C/c1ccc(C)o1)C(=O)O [Compound 27]
> 200 µM | O=C(O)c1ccc(NC(=O)C2CC(=O)N(c3ccc(Cl)cc3)C2)cc1 (stereo not drawn) [Compound 18]
> 200 µM | CC(SC1N=C(c2ccccc2)C(c2ccccc2)=N1)C(=O)O (stereo not drawn) [Compound 22]
> 200 µM | Cc1cc(C)n(-c2ccc(S(=O)(=O)O)cc2)n1 [Compound 43]
> 200 µM | O=C(O)c1ccc(NC(=O)[C@H]2CC(=O)N(c3ccc(Cl)cc3)C2)cc1 [Compound 47]
> 200 µM | C#CCOc1ccc2ccccc2c1/C=C1\SC(Nc2cccc(C(=O)O)c2)=NC1=O [Compound 40]
> 200 µM | Cc1cccc(C)c1OCC(=O)NCc1ccc(C(=O)O)cc1 [Compound 17]
> 200 µM | O=C(O)c1ccc(-c2ccc(CNC3CCCCC3)o2)cc1 [Compound 14]
> 200 µM | O=C(O)[C@H]1CC(=O)N(c2ccc(I)cc2)C1 [Compound 39]
> 200 µM | O=C(O)CCC(=O)Nc1ccc(OCCc2ccccc2)cc1 [Compound 44]
> 200 µM | CCc1ccc(C=C(C(=O)O)C(=O)O)s1 [Compound 23]
> 200 µM | CCOc1cc(Cl)c(S(=O)(=O)N2CCC(C(=O)O)CC2)cc1Cl [Compound 19]
144 µM | CCN/C(=N\c1cccc(C(F)(F)F)c1)S[C@H]1CC(=O)N(c2ccc(C(=O)O)cc2)C1=O [Compound 03]
> 200 µM | Cc1ccc(Oc2ccc(N3C[C@H](C(=O)O)CC3=O)cc2)cc1C [Compound 50]
> 200 µM | Cc1ccc(Oc2ccc3c(c2)C(=O)N(CC(=O)O)C3=O)cc1 [Compound 07]
> 200 µM | Cc1cc2nc(S(=O)(=O)O)n(C)c2cc1C [Compound 31]
> 200 µM | O=C(O)c1ccc(C(=O)Nc2ccc(Br)cc2)c(C(=O)O)c1 [Compound 33]

same assay, conditions: Table 1; compound marked as agonist; unit inferred; read-out: IC50 Value (agonist)

IC50 | SMILES
60.3 µM | CN1C(=O)C(Cc2ccc(O)c(Cl)c2)S/C1=N\c1cccc(C(=O)O)c1 (stereo not drawn) [Compound 21]

same assay, conditions: Table 2; unit inferred; read-out: IC50 of the compounds (inhibitory activity on CRAC channel)

SMILES | IC50
Cc1ccc(N2C(=O)CC(Sc3nc4ccccc4n3CCc3ccc(S(N)(=O)=O)cc3)C2=O)cc1 (stereo not drawn) [Compound 119] | > 200 µM
CCOC(=O)c1ccc(N2C(=O)CC(S/C(=N/c3ccc(OC)cc3)NCCc3ccc(S(N)(=O)=O)cc3)C2=O)cc1 (stereo not drawn) [Compound 107] | > 200 µM
NS(=O)(=O)c1ccc(CCN/C(=N\c2ccccc2)SC2CC(=O)N(c3ccccc3)C2=O)cc1 (stereo not drawn) [Compound 96] | 10.9 µM
NS(=O)(=O)c1ccc(CCNC(=S)Nc2cccc3ccccc23)cc1 [Compound 104] | > 200 µM
COc1ccc(N2C(=O)CC(Sc3nc4ccccc4n3CCc3ccc(S(N)(=O)=O)cc3)C2=O)cc1 (stereo not drawn) [Compound 118] | > 200 µM
COc1ccc(OC)c(/N=C(\NCCc2ccc(S(N)(=O)=O)cc2)SC2CC(=O)N(c3ccccc3)C2=O)c1 (stereo not drawn) [Compound 112] | 0.2 µM
COC(=O)c1ccc(N2C(=O)CC(S/C(=N/c3ccc(OC)cc3)NCCc3ccc(S(N)(=O)=O)cc3)C2=O)cc1 (stereo not drawn) [Compound 100] | 14.8 µM
COC(=O)c1ccc(N2C(=O)CC(S/C(=N/c3cc(OC)ccc3OC)NCCc3ccc(S(N)(=O)=O)cc3)C2=O)cc1 (stereo not drawn) [Compound 98] | 21.2 µM
NS(=O)(=O)c1ccc(CCNC(=S)Nc2cccnc2)cc1 [Compound 97] | > 200 µM
CCOC(=O)c1ccc(N2C(=O)CC(S/C(=N/c3cc(OC)ccc3OC)NCCc3ccc(S(N)(=O)=O)cc3)C2=O)cc1 (stereo not drawn) [Compound 110] | > 200 µM
COc1ccc(/N=C(\NCCc2ccc(S(N)(=O)=O)cc2)SC2CC(=O)N(c3ccc(C)cc3)C2=O)cc1 (stereo not drawn) [Compound 114] | > 200 µM
COc1ccc(N2C(=O)CC(Br)C2=O)cc1 (stereo not drawn) [Compound 120] | > 200 µM
COC(=O)c1ccc(N2C(=O)CC(S/C(=N\c3cccc(C(F)(F)F)c3)NCCc3ccc(OC)c(OC)c3)C2=O)cc1 (stereo not drawn) [Compound 67] | > 200 µM
Cc1ccc(/N=C(\NCCc2ccc(S(N)(=O)=O)cc2)SC2CC(=O)N(c3ccccc3)C2=O)cc1 (stereo not drawn) [Compound 113] | 5.83 µM
COc1ccc(N2C(=O)CC(S/C(=N/c3ccc(C)cc3)NCCc3ccc(S(N)(=O)=O)cc3)C2=O)cc1 (stereo not drawn) [Compound 105] | > 200 µM

The next lines start with the values.

IC50 | SMILES
> 200 µM | CCCCN/C(=N\c1ccccc1)SC1CC(=O)N(c2ccc(C(=O)NC)cc2)C1=O (stereo not drawn) [Compound 92]
> 200 µM | COC(=O)c1ccc(N2C(=O)CC(S/C(=N\c3ccccc3)NCc3ccc4c(c3)OCO4)C2=O)cc1 (stereo not drawn) [Compound 58]
> 200 µM | COC(=O)c1ccc(N2C(=O)CC(S/C(=N/c3ccccc3)NC3CC3)C2=O)cc1 (stereo not drawn) [Compound 80]
15.8 µM | CCOC(=O)c1ccc(N2C(=O)CC(S/C(=N/c3ccccc3)NCCc3ccc(S(N)(=O)=O)cc3)C2=O)cc1 (stereo not drawn) [Compound 103]
> 200 µM | CN/C(=N/c1ccc(C)c(Cl)c1)SC1CC(=O)N(c2ccc(C(=O)O)cc2)C1=O (stereo not drawn) [Compound 60]
> 200 µM | CCCCN/C(=N\c1ccccc1)SC1CC(=O)N(c2ccc(C(=O)OC)cc2)C1=O (stereo not drawn) [Compound 78]
> 200 µM | CCCN/C(=N\c1ccccc1)SC1CC(=O)N(c2ccc(C(=O)NC)cc2)C1=O (stereo not drawn) [Compound 91]
> 200 µM | CNC(=O)c1ccc(N2C(=O)CC(S/C(=N/c3ccccc3)NC)C2=O)cc1 (stereo not drawn) [Compound 89]
> 200 µM | CNC(=O)c1ccc(N2C(=O)CC(S/C(=N/c3ccccc3)NC3CC3)C2=O)cc1 (stereo not drawn) [Compound 94]
> 200 µM | CCN/C(=N/c1cccc(F)c1)SC1CC(=O)N(c2ccc(C(=O)O)cc2)C1=O (stereo not drawn) [Compound 73]
> 200 µM | CN/C(=N/c1cccc(OC)c1)SC1CC(=O)N(c2ccc(C(=O)O)cc2)C1=O (stereo not drawn) [Compound 71]
> 200 µM | CCN/C(=N\c1ccccc1)SC1CC(=O)N(c2ccc(C(=O)OCC)cc2)C1=O (stereo not drawn) [Compound 83]
5.01 µM | COc1ccc(N2C(=O)CC(S/C(=N/c3ccccc3)NCCc3ccc(S(N)(=O)=O)cc3)C2=O)cc1 (stereo not drawn) [Compound 106]
> 200 µM | CCN/C(=N\c1ccccc1)SC1CC(=O)N(c2ccc(C(=O)NC)cc2)C1=O (stereo not drawn) [Compound 90]
> 200 µM | CN/C(=N/c1ccccc1)SC1CC(=O)N(c2ccc(C(=O)OC)cc2)C1=O (stereo not drawn) [Compound 75]
> 200 µM | CCCCN/C(=N\c1ccccc1)SC1CC(=O)N(c2ccc(C(=O)OCC)cc2)C1=O (stereo not drawn) [Compound 85]
6.34 µM | CCOC(=O)c1ccc(N2C(=O)CC(S/C(=N/c3ccccc3)NC(C)C)C2=O)cc1 (stereo not drawn) [Compound 86]
> 200 µM | CN/C(=N/c1ccc(I)cc1)SC1CC(=O)N(c2ccc(C(=O)O)cc2)C1=O (stereo not drawn) [Compound 59]
> 200 µM | CCN/C(=N\c1ccccc1)SC1CC(=O)N(c2ccc(C(=O)OC)cc2)C1=O (stereo not drawn) [Compound 76]
> 200 µM | CCCN/C(=N\c1ccccc1)SC1CC(=O)N(c2ccc(C(=O)OCC)cc2)C1=O (stereo not drawn) [Compound 84]
22.4 µM | CCOC(=O)c1ccc(N2C(=O)CC(S/C(=N/c3ccccc3)NC)C2=O)cc1 (stereo not drawn) [Compound 82]
> 200 µM | CCOC(=O)c1ccc(N2C(=O)CC(S/C(=N/c3ccccc3)NC(C)(C)C)C2=O)cc1 (stereo not drawn) [Compound 88]
> 200 µM | COC(=O)c1ccc(N2C(=O)CC(S/C(=N\c3ccc(Cl)cc3)NCc3ccccc3)C2=O)cc1 (stereo not drawn) [Compound 68]
24.9 µM | CN/C(=N/c1ccccc1)SC1CC(=O)N(c2ccc(C(=O)OC)cc2)C1=O (stereo not drawn) [Compound 64]
74.4 µM | CN/C(=N/c1ccccc1OC)SC1CC(=O)N(c2ccc(C(=O)OC)cc2)C1=O (stereo not drawn) [Compound 63]
> 200 µM | CCN/C(=N/c1ccccc1)SC1CC(=O)N(c2ccc(C(=O)O)cc2)C1=O (stereo not drawn) [Compound 61]
> 200 µM | O=C(O)c1ccc(N2C(=O)CC(S/C(=N\c3ccccc3)Nc3ccccc3)C2=O)cc1 (stereo not drawn) [Compound 52]
> 200 µM | CCCN/C(=N\c1ccccc1)SC1CC(=O)N(c2ccc(C(=O)OC)cc2)C1=O (stereo not drawn) [Compound 77]
11.3 µM | CCN/C(=N/c1ccc(C)c(Cl)c1)SC1CC(=O)N(c2ccc(C(=O)OC)cc2)C1=O (stereo not drawn) [Compound 62]
> 200 µM | COc1ccc(CN/C(=N/c2ccc(Cl)cc2)SC2CC(=O)N(c3ccc(C(=O)O)cc3)C2=O)cc1 (stereo not drawn) [Compound 74]
